# Data from PubChem BioAssay (NCI).
#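 GI50: concentration for 50% inhibition of growth. TGI: concentration producing complete growth inhibition.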
# What was measured:
# Assay in all cases: NCI anticancer screen, dose series, 384-well format
# [1] = tested on: UACC-62 melanoma
# [2] = tested on: MDA-MB-435 melanoma
# [3] = tested on: U251 glioblastoma
# [4] = tested on: MDA-MB-468 breast
# [5] = tested on: HCT-116 colon
# [6] = tested on: SNB-19 CNS
# [7] = tested on: SF-295 CNS
# [8] = tested on: KM12 colon
# [9] = tested on: OVCAR-8 ovarian
# [10] = tested on: PC-3 prostate
# [11] = tested on: K-562 leukemia
# [12] = tested on: HCT-15 colon
# [13] = tested on: NCI/ADR-RES ovarian
smiles,measurement,setting,value
COc1nn(C)cc1Nc1nccc(-c2c[nH]c3c(NC(=O)[C@@H](C)N4CCN(C)CC4)cccc23)n1,GI50,[1],17.7 µM
same,TGI,[1],38.2 µM
same,GI50,[2],13.5 µM
same,TGI,[2],30.8 µM
same,GI50,[3],27.8 µM
same,TGI,[3],75.8 µM
same,GI50,[4],15.1 µM
same,TGI,[4],30.9 µM
same,GI50,[5],19.8 µM
same,TGI,[5],43.2 µM
same,GI50,[6],41.2 µM
same,TGI,[6],> 100 µM
same,GI50,[7],28.1 µM
same,TGI,[7],> 61.6 µM
same,GI50,[8],20.1 µM
same,TGI,[8],61.2 µM
same,GI50,[9],45.1 µM
same,TGI,[9],> 76.3 µM
same,GI50,[10],23.1 µM
same,TGI,[10],86 µM
same,GI50,[11],10.5 µM
same,TGI,[11],26.5 µM
same,GI50,[12],18.7 µM
same,TGI,[12],51.7 µM
same,GI50,[13],45.4 µM
same,TGI,[13],> 100 µM
